Results published in ChEMBL document CHEMBL4177527, “Synthesis and biological evaluation of a D-ring-contracted analogue of lamellarin D” (Bioorg Med Chem, 2017).
Calls of active or inactive are those of the source. No cut-off for these calls is given here.

Assays:
CCRF-CEM [1] = experiment: Cytotoxicity against human CCRF-CEM cells assessed as reduction in cell viability after 72 hrs by resazurin reduction assay; assay type: functional, cell-based
ADR5000 cell line = experiment: Cytotoxicity against human CEM/ADR5000 cells assessed as reduction in cell viability after 72 hrs by resazurin reduction assay; assay type: functional, cell-based; details: ADR5000, 72 h
[2] = Resistance index, ratio of IC50 for human CEM/ADR5000 cells to IC50 for human CCRF-CEM cells; assay type: functional
CCRF-CEM [3] = experiment: Cell cycle arrest in human CCRF-CEM cells assessed as accumulation at S phase at 0.01 uM after 6 hrs by propidium iodide staining-based flow cytometry; assay type: functional
CCRF-CEM [4] = experiment: Cell cycle arrest in human CCRF-CEM cells assessed as accumulation at G2/M phase after 24 hrs by propidium iodide staining-based flow cytometry; assay type: functional
CCRF-CEM [5] = experiment: Induction of apoptosis in human CCRF-CEM cells at 0.01 uM after 72 hrs by propidium iodide staining-based flow cytometry; assay type: functional, cell-based
CCRF-CEM [6] = experiment: Cell cycle arrest in human CCRF-CEM cells assessed as accumulation at S phase at 0.055 to 0.44 uM after 6 to 72 hrs by propidium iodide staining-based flow cytometry; assay type: functional
CCRF-CEM [7] = experiment: Cell cycle arrest in human CCRF-CEM cells assessed as accumulation at G2/M phase at 0.055 to 0.44 uM after 6 to 72 hrs by propidium iodide staining-based flow cytometry; assay type: functional
CCRF-CEM [8] = experiment: Induction of apoptosis in human CCRF-CEM cells at 0.055 to 0.44 uM after 24 to 72 hrs by propidium iodide staining-based flow cytometry; assay type: functional, cell-based
CCRF-CEM [9] = experiment: Cell cycle arrest in human CCRF-CEM cells assessed as accumulation at SubG1 phase at 0.055 to 0.44 uM after 72 hrs by propidium iodide staining-based flow cytometry; assay type: functional

| Structure (SMILES) | IC50 (CCRF-CEM [1]) | IC50 (ADR5000 cell line) | Ratio IC50 [2] | Activity (CCRF-CEM [3]) | Activity (CCRF-CEM [4]) | Activity (CCRF-CEM [5]) | Activity (CCRF-CEM [6]) | Activity (CCRF-CEM [7]) | Activity (CCRF-CEM [8]) | Activity (CCRF-CEM [9]) |
| --- | --- | --- | --- | --- | --- | --- | --- | --- | --- | --- |
| CC[C@@]1(O)C(=O)OCc2c1cc1n(c2=O)Cc2cc3ccccc3nc2-1 [CAMPTOTHECIN] | 0.003 µM | 0.011 µM | 3.7 | Active | Dose-dependent effect | Active |  |  |  |  |
| COc1cc(-c2c3c(n4ccc5cc(O)c(OC)cc5c24)C(=O)c2cc(O)c(OC)cc2-3)ccc1O | 0.113 µM | 0.172 µM | 1.5 |  |  |  | inactive | inactive | Active | Active |
